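Grown in 96-well plates, cells were treated for 48 hours with each compound at five concentrations. Insufficient inhibition: endpoint recorded as highest concentration tested. TGI denotes the concentration required for complete inhibition of growth.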
Columns and labels:
Assay in all cases: DTP human tumour cell line panel, 48 h
HOP-62 NSCLC = tested on: HOP-62 NSCLC
SK-OV-3 ovarian = tested on: SK-OV-3 ovarian
XF 498 CNS = tested on: XF 498 CNS
SK-MEL-28 melanoma = tested on: SK-MEL-28 melanoma
CAKI-1 renal = tested on: CAKI-1 renal
MOLT-4 leukemia = tested on: MOLT-4 leukemia
NCI-H226 lung = tested on: NCI-H226 lung
U251 CNS = tested on: U251 CNS
HCC-2998 colon = tested on: HCC-2998 colon
NCI-H460 lung = tested on: NCI-H460 lung
M14 melanoma = tested on: M14 melanoma
A549 NSCLC = tested on: A549 NSCLC
HCT-116 colon = tested on: HCT-116 colon
DLD-1 colon = tested on: DLD-1 colon
UACC-257 melanoma = tested on: UACC-257 melanoma
KM12 colon = tested on: KM12 colon
LXFL 529 NSCLC = tested on: LXFL 529 NSCLC
SK-MEL-2 melanoma = tested on: SK-MEL-2 melanoma
HL-60(TB) leukemia = tested on: HL-60(TB) leukemia
RPMI-8226 leukemia = tested on: RPMI-8226 leukemia
NCI-H23 lung = tested on: NCI-H23 lung
UACC-62 melanoma = tested on: UACC-62 melanoma
SK-MEL-5 melanoma = tested on: SK-MEL-5 melanoma
SNB-19 CNS = tested on: SNB-19 CNS
OVCAR-8 ovarian = tested on: OVCAR-8 ovarian
EKVX NSCLC = tested on: EKVX NSCLC
COLO 205 colon = tested on: COLO 205 colon
LOX IMVI melanoma = tested on: LOX IMVI melanoma
M19-MEL melanoma = tested on: M19-MEL melanoma
UO-31 renal = tested on: UO-31 renal
OVCAR-3 ovarian = tested on: OVCAR-3 ovarian
K-562 leukemia = tested on: K-562 leukemia
NCI-H522 lung = tested on: NCI-H522 lung
SF-295 CNS = tested on: SF-295 CNS
MALME-3M melanoma = tested on: MALME-3M melanoma
OVCAR-4 ovarian = tested on: OVCAR-4 ovarian
SF-268 CNS = tested on: SF-268 CNS
A498 renal = tested on: A498 renal
CCRF-CEM leukemia = tested on: CCRF-CEM leukemia
786-0 renal = tested on: 786-0 renal
SF-539 CNS = tested on: SF-539 CNS
DMS 114 small cell lung = tested on: DMS 114 small cell lung
SW-620 colon = tested on: SW-620 colon
ACHN renal = tested on: ACHN renal
IGROV1 ovarian = tested on: IGROV1 ovarian
HT29 colon = tested on: HT29 colon
SN12C renal = tested on: SN12C renal
HCT-15 colon = tested on: HCT-15 colon
DMS 273 small cell lung = tested on: DMS 273 small cell lung
TK-10 renal = tested on: TK-10 renal
SR leukemia = tested on: SR leukemia
KM20L2 colon = tested on: KM20L2 colon
OVCAR-5 ovarian = tested on: OVCAR-5 ovarian
HOP-92 NSCLC = tested on: HOP-92 NSCLC
SNB-75 CNS = tested on: SNB-75 CNS
RXF 393 renal = tested on: RXF 393 renal
SNB-78 CNS = tested on: SNB-78 CNS

## CCOC(=O)CC[C@H](NC(=O)c1[nH]cnc1/N=N/N(C)C)C(=O)OCC
HOP-62 NSCLC
  TGI: > 100 µM
SK-OV-3 ovarian
  TGI: > 100 µM
XF 498 CNS
  TGI: > 100 µM
SK-MEL-28 melanoma
  TGI: > 100 µM
CAKI-1 renal
  TGI: > 100 µM
MOLT-4 leukemia
  TGI: > 100 µM
NCI-H226 lung
  TGI: > 100 µM
U251 CNS
  TGI: > 100 µM
HCC-2998 colon
  TGI: > 100 µM
NCI-H460 lung
  TGI: > 100 µM
M14 melanoma
  TGI: > 100 µM
A549 NSCLC
  TGI: > 100 µM
HCT-116 colon
  TGI: > 100 µM
DLD-1 colon
  TGI: > 100 µM
UACC-257 melanoma
  TGI: > 100 µM
KM12 colon
  TGI: > 100 µM
LXFL 529 NSCLC
  TGI: > 100 µM
SK-MEL-2 melanoma
  TGI: > 100 µM
HL-60(TB) leukemia
  TGI: > 100 µM
RPMI-8226 leukemia
  TGI: > 100 µM
NCI-H23 lung
  TGI: > 100 µM
UACC-62 melanoma
  TGI: > 100 µM
SK-MEL-5 melanoma
  TGI: > 100 µM
SNB-19 CNS
  TGI: > 100 µM
OVCAR-8 ovarian
  TGI: > 100 µM
EKVX NSCLC
  TGI: > 100 µM
COLO 205 colon
  TGI: > 100 µM
LOX IMVI melanoma
  TGI: > 100 µM
M19-MEL melanoma
  TGI: > 100 µM
UO-31 renal
  TGI: > 100 µM
OVCAR-3 ovarian
  TGI: > 100 µM
K-562 leukemia
  TGI: > 100 µM
NCI-H522 lung
  TGI: > 100 µM
SF-295 CNS
  TGI: > 100 µM
MALME-3M melanoma
  TGI: > 100 µM
OVCAR-4 ovarian
  TGI: > 100 µM
SF-268 CNS
  TGI: > 100 µM
A498 renal
  TGI: > 100 µM
CCRF-CEM leukemia
  TGI: > 100 µM
786-0 renal
  TGI: > 100 µM
SF-539 CNS
  TGI: > 100 µM
DMS 114 small cell lung
  TGI: > 100 µM
SW-620 colon
  TGI: > 100 µM
ACHN renal
  TGI: > 100 µM
IGROV1 ovarian
  TGI: > 100 µM
HT29 colon
  TGI: > 100 µM
SN12C renal
  TGI: > 100 µM
HCT-15 colon
  TGI: > 100 µM
DMS 273 small cell lung
  TGI: > 100 µM

## CC1(C)CC(C)(C)CC(O)(C2(O)CC(C)(C)CC(C)(C)C2)C1
HOP-62 NSCLC
  TGI: > 100 µM
SK-OV-3 ovarian
  TGI: > 100 µM
XF 498 CNS
  TGI: > 100 µM
SK-MEL-28 melanoma
  TGI: > 100 µM
MOLT-4 leukemia
  TGI: > 100 µM
NCI-H226 lung
  TGI: > 100 µM
TK-10 renal
  TGI: > 100 µM
U251 CNS
  TGI: > 100 µM
HCC-2998 colon
  TGI: > 100 µM
NCI-H460 lung
  TGI: > 100 µM
M14 melanoma
  TGI: > 100 µM
A549 NSCLC
  TGI: > 100 µM
HCT-116 colon
  TGI: > 100 µM
UACC-257 melanoma
  TGI: > 100 µM
KM12 colon
  TGI: > 100 µM
LXFL 529 NSCLC
  TGI: > 100 µM
HL-60(TB) leukemia
  TGI: > 100 µM
RPMI-8226 leukemia
  TGI: > 100 µM
NCI-H23 lung
  TGI: > 100 µM
UACC-62 melanoma
  TGI: > 100 µM
SK-MEL-5 melanoma
  TGI: > 100 µM
SNB-19 CNS
  TGI: > 100 µM
OVCAR-8 ovarian
  TGI: > 100 µM
EKVX NSCLC
  TGI: > 100 µM
COLO 205 colon
  TGI: > 100 µM
LOX IMVI melanoma
  TGI: > 100 µM
SR leukemia
  TGI: > 100 µM
M19-MEL melanoma
  TGI: > 100 µM
UO-31 renal
  TGI: > 100 µM
OVCAR-3 ovarian
  TGI: > 100 µM
K-562 leukemia
  TGI: > 100 µM
NCI-H522 lung
  TGI: > 100 µM
SF-295 CNS
  TGI: > 100 µM
MALME-3M melanoma
  TGI: > 100 µM
KM20L2 colon
  TGI: > 100 µM
SF-268 CNS
  TGI: > 100 µM
CCRF-CEM leukemia
  TGI: > 100 µM
786-0 renal
  TGI: > 100 µM
SF-539 CNS
  TGI: > 100 µM
DMS 114 small cell lung
  TGI: > 100 µM
SW-620 colon
  TGI: > 100 µM
ACHN renal
  TGI: > 100 µM
IGROV1 ovarian
  TGI: > 100 µM
HT29 colon
  TGI: > 100 µM
SN12C renal
  TGI: > 100 µM
HCT-15 colon
  TGI: > 100 µM
DMS 273 small cell lung
  TGI: > 100 µM

## Clc1ccc(-c2nnc3c4nnc(-c5ccc(Cl)cc5Cl)n4c4ccccc4n23)c(Cl)c1
HOP-62 NSCLC
  TGI: > 100 µM
SK-OV-3 ovarian
  TGI: > 100 µM
XF 498 CNS
  TGI: > 100 µM
SK-MEL-28 melanoma
  TGI: > 100 µM
CAKI-1 renal
  TGI: > 100 µM
MOLT-4 leukemia
  TGI: > 100 µM
TK-10 renal
  TGI: > 100 µM
U251 CNS
  TGI: > 100 µM
HCC-2998 colon
  TGI: > 100 µM
NCI-H460 lung
  TGI: > 100 µM
M14 melanoma
  TGI: > 100 µM
OVCAR-5 ovarian
  TGI: > 100 µM
HOP-92 NSCLC
  TGI: > 100 µM
SNB-75 CNS
  TGI: 63.2 µM
A549 NSCLC
  TGI: > 100 µM
HCT-116 colon
  TGI: > 100 µM
DLD-1 colon
  TGI: > 100 µM
UACC-257 melanoma
  TGI: > 100 µM
KM12 colon
  TGI: > 100 µM
LXFL 529 NSCLC
  TGI: > 100 µM
SK-MEL-2 melanoma
  TGI: > 100 µM
RPMI-8226 leukemia
  TGI: > 100 µM
NCI-H23 lung
  TGI: > 100 µM
UACC-62 melanoma
  TGI: > 100 µM
SK-MEL-5 melanoma
  TGI: > 100 µM
SNB-19 CNS
  TGI: > 100 µM
OVCAR-8 ovarian
  TGI: > 100 µM
RXF 393 renal
  TGI: > 100 µM
EKVX NSCLC
  TGI: > 100 µM
SNB-78 CNS
  TGI: > 100 µM
COLO 205 colon
  TGI: > 100 µM
LOX IMVI melanoma
  TGI: > 100 µM
M19-MEL melanoma
  TGI: > 100 µM
UO-31 renal
  TGI: > 100 µM
OVCAR-3 ovarian
  TGI: > 100 µM
K-562 leukemia
  TGI: > 100 µM
NCI-H522 lung
  TGI: > 100 µM
SF-295 CNS
  TGI: > 100 µM
MALME-3M melanoma
  TGI: > 100 µM
OVCAR-4 ovarian
  TGI: > 100 µM
KM20L2 colon
  TGI: > 100 µM
SF-268 CNS
  TGI: > 100 µM
A498 renal
  TGI: > 100 µM
CCRF-CEM leukemia
  TGI: > 100 µM
786-0 renal
  TGI: > 100 µM
SF-539 CNS
  TGI: > 100 µM
DMS 114 small cell lung
  TGI: > 100 µM
SW-620 colon
  TGI: > 100 µM
ACHN renal
  TGI: > 100 µM
IGROV1 ovarian
  TGI: > 100 µM
HT29 colon
  TGI: > 100 µM
SN12C renal
  TGI: > 100 µM
HCT-15 colon
  TGI: > 100 µM
DMS 273 small cell lung
  TGI: > 100 µM
